Assay results taken from ChEMBL document CHEMBL1158449, “Hirtellanines A and B, a pair of isomeric isoflavonoid derivatives from Campylotropis hirtella and their immunosuppressive activities” (Bioorg Med Chem Lett, 2009).

What was measured:
Splenocyte [1] = assay: Selectivity index, CC50 for splenocyte to IC50 for LPS-induced splenocytes proliferation; format: functional
Splenocyte [2] = assay: Selectivity index, CC50 for splenocytes to IC50 for concanavalin A-induced splenocyte proliferation; format: functional
Splenocyte [3] = assay: Immunosuppressive activity in splenocytes assessed as inhibition of LPS-induced proliferation after 48 hrs by [3H]thymidine incorporation assay; format: functional, cell-based; conditions: Mus musculus
[4] = Cytotoxicity against splenocytes after 48 hrs by MTT assay; format: cell-based, Splenocyte
Splenocyte [5] = assay: Immunosuppressive activity in splenocytes assessed as inhibition of concanavalin A-induced proliferation after 48 hrs by [3H]thymidine incorporation assay; format: functional, cell-based; conditions: Mus musculus

| SMILES | Ratio CC50/IC50 (Splenocyte [1]) | Ratio CC50/IC50 (Splenocyte [2]) | IC50 (Splenocyte [3]) | CC50 at 48 h [4] | IC50 (Splenocyte [5]) |
| --- | --- | --- | --- | --- | --- |
| C/C=C/C[C@@H](C)[C@@H](O)[C@H]1C(=O)N[C@@H](CC)C(=O)N(C)CC(=O)N(C)[C@@H](CC(C)C)C(=O)N[C@@H](C(C)C)C(=O)N(C)[C@@H](CC(C)C)C(=O)N[C@@H](C)C(=O)N[C@H](C)C(=O)N(C)[C@@H](CC(C)C)C(=O)N(C)[C@@H](CC(C)C)C(=O)N(C)[C@@H](C(C)C)C(=O)N1C [CYCLOSPORINE] | 12.39 | 88 | – | – | – |
| COc1c2c(cc3oc4oc5cc(O)c(O)cc5c4c(=O)c13)OC(C)(C)C=C2 [HIRTELLANINE A] | 50.5 | 3.29 | 0.06 µM | 3.03 µM | 0.92 µM |
| COc1c2c(cc3oc(=O)c4c5cc(O)c(O)cc5oc4c13)OC(C)(C)C=C2 [HIRTELLANINE B] | 8.77 | 2.76 | 3 µM | 26.3 µM | 9.55 µM |
